Common to all, as to format: biochemical
Assay [1] has as its target T1, AChE (acetylcholinesterase) (Electrophorus electricus, UniProt O42275). As to the kind of experiment: Ellman colorimetric assay with electric eel AChE, % inhibition at […]. Conditions: 100 µM. For orientation: DTNB colorimetry detects thiols as they appear.
For assay [2], the target named is T2, BuChE (butyrylcholinesterase) (Equus caballus, UniProt P81908).
T2 construct: gene BCHE
In words: Ellman colorimetric assay with equine serum BuChE, % inhibition at […].

Assay [3] concerns the target T1, AChE (acetylcholinesterase). In words: Ellman colorimetric assay with electric eel AChE.

T2 sequence (P81908 whole entry): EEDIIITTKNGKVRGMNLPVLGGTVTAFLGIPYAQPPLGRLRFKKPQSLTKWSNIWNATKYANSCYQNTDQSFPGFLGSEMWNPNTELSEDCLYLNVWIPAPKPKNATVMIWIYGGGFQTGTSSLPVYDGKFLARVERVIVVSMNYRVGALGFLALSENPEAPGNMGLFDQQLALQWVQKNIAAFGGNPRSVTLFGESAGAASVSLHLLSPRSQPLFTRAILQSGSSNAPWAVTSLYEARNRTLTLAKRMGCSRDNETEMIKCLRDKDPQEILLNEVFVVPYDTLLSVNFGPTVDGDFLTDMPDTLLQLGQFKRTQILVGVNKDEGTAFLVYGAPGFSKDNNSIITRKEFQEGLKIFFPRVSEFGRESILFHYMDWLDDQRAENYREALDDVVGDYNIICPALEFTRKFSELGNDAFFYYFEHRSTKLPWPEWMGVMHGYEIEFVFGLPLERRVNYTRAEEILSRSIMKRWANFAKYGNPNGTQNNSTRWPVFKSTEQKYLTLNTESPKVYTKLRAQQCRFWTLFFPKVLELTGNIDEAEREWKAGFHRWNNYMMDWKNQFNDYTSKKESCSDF
T1 sequence (O42275 24-633): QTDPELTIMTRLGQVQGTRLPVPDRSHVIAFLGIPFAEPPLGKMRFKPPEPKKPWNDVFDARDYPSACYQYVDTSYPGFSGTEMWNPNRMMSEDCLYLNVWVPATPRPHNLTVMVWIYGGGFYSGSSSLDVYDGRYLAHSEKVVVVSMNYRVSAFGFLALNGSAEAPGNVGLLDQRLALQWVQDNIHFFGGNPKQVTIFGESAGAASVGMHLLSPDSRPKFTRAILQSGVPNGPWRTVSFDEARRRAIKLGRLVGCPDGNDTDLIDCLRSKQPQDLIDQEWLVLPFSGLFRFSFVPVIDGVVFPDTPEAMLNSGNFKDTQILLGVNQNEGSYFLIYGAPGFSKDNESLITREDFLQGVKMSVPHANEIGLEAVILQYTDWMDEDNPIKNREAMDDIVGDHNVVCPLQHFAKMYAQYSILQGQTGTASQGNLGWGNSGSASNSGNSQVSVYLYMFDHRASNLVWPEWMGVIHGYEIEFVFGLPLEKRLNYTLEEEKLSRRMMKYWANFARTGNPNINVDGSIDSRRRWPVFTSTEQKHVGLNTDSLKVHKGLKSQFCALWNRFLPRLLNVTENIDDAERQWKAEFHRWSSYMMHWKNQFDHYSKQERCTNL

As for 6-deoxyclitoriacetal [compound 7], the “% Inhibition of AChE” value in assay [1] was found to be 37.9 ± 5.0. By inhibition is commonly meant the relative decrease from the control value, in per cent. As usually defined, the IC50 is the midpoint of a concentration-inhibition curve. Compound `O=C(/C=C/c1ccc(O)cc1)NCCCCN(CCCNC(=O)/C=C/c1ccc(O)cc1)C(=O)/C=C/c1ccc(O)cc1` [compound 5, N^1,N^5,N^10-(E)-tri-p-coumaroylspermidine] gave an inhibition at 100 µM in assay [2] of 43.8 ± 1.9%. This compound also registered an IC50 in assay [3] of 102 ± 8.1 µM.

For `COC1=CC(=O)[C@]2(C=C1OC)OC[C@H]1Oc3c(ccc4c3C=CC(C)(C)O4)C(=O)[C@H]12` [compound 8, amorphispironone], in assay [2], the inhibition at 100 µM came out at 37.6 ± 2.7%.

Values taken from PMC11085544, “Anticholinesterase Activity of Methanolic Extract of Amorpha fruticosa Flowers and Isolation of Rotenoids and Putrescine and Spermidine Derivatives” (Plants, 2024).
